Experimental findings from patent US20110263539A1, “SHIP 1 MODULATOR COMPOUNDS” (THE UNIVERSITY OF BRITISH COLUMBIA, priority 2006, published 2011) are described below.

The subject of assay [1] is SHIP enzyme. Nature of the assay: In vitro SHIP enzyme assay (Assay 1). For Assay Number 1: SHIP enzyme assay: key: a ‘+’ indicates a positive result for desired activity; a ‘−’ indicates a negative result for desired activity. Type of assay: biochemical. The following applies: for Assay Number 1: SHIP enzyme assay: 100 μM inositol-1,3,4,5-tetrakisphosphate, Malachite Green. The method, then:
Assay 1) In vitro testing in a SHIP enzyme assay. Test compounds were dissolved in a suitable solvent (e.g. EtOH, DMSO and others) and diluted into aqueous buffer (20 mM Tris HCl, pH 7.5 and 10 mM MgCl2). SHIP enzyme assays were performed in 96-well microtitre plates with 10 ng of enzyme/well in a total volume of 25 μL of 20 mM Tris HCl, pH 7.5 and 10 mM MgCl2. SHIP enzyme was incubated with test extracts (provided in solvent) or vehicle for 15 min at 23° C. before the addition of 100 μM inositol-1,3,4,5-tetrakisphosphate (Echelon Biosciences Inc, Salt Lake City, Utah). After 20 min at 37° C. and the amount of inorganic phosphate released assessed by the addition of Malachite Green reagent and absorbance measurement at 650 nm.
For in vitro testing in the SHIP enzyme assay, AQX-016A and Compound 100 were dissolved in EtOH and diluted into aqueous buffer (20 mM Tris HCl, pH 7.5 and 10 mM MgCl2). The actual concentration of drug in solution was determined by optical density measurement at 280 nm (λmax for both compounds) after high speed centrifugation at 14 000×g for 30 min to remove precipitated drug. For testing on cells, compounds were formulated in the carrier cyclodextrin (Cyclodex Technologies, High Springs, Fla.) at 6 mM (2 mg/mL). For oral administration to animals, compounds were dissolved in 100% cremophore EL (Sigma-Aldrich Canada, Oakville, Ontario) at 150 mM (50 mg/mL) prior to dilution to 6 mM in phosphate buffer saline. However, while these compounds caged in cyclodextrin or formulated in cremophore EL micelles were very soluble in aqueous solution, they could not be used in the SHIP enzyme assays because of interference from both cyclodextrin and cremophore EL.
N-terminal His6 tagged SHIP enzyme was expressed in mammalian 293T cells by transient transfection with pME18S-His-SHIP plasmid and purified to >95% homogeneity by Ni-chelating bead chromatography (Qiagen, Mississauga, Ontario). Recombinant SHIP C2 domain (amino acid residues 725 to 863) was expressed in E. coli transformed with a pET28C expression vector constructed as described below. Recombinant protein purified from the cell lysates by Nichelating bead chromatography was >95% pure.
In vitro SHIP enzyme assay. SHIP enzyme assays were performed in 96-well microtitre plates with 10 ng of enzyme/well in a total volume of 25 μL of 20 mM Tris HCl, pH 7.5 and 10 Mm MgCl2. SHIP enzyme was incubated with test extracts (provided in DMSO) or vehicle for 15 min at 23° C. before the addition of 100 μM inositol-1,3,4,5-tetrakisphosphate (Echelon Biosciences Inc, Salt Lake City, Utah). After 20 min at 37° C. and the amount of inorganic phosphate released assessed by the addition of Malachite Green reagent and absorbance measurement at 650 nm. SHIP2 enzyme was purchased from Echelon Biosciences (Salt Lake City, Utah) and an equivalent amount of inositol phosphatase activity was used in the in vitro enzyme assay. Enzyme data are expressed as the mean of triplicates +/−SEM. Experiments were performed at least 3 times. (FIGS. 7A and 7B).

The test system of assay [2] is J774.1a macrophage cells. Nature of the assay: Macrophage TNF-α production (Assay 2). Note: key: a ‘+’ indicates a positive result for desired activity; a ‘−’ indicates a negative result for desired activity. It is filed as cell-based. The note with it: 10 μg/mL test compound, 100 ng/mL LPS, ELISA. As to the method:
Assay 2) Macrophage TNF-α production. J774.1a macrophage cells were treated with 10 μg/mL of test compound dissolved in solvent (e.g. cyclodextran) for 40 minutes prior to the addition of 100 ng/mL LPS. Culture supernatants were collected after 2 hr and 5 hr for TNF-α determination by ELISA.
(ELISA stands for enzyme-linked immunosorbent assay.)

Assay [3] has as its system J774.1a macrophage cells. Nature of the assay: Macrophage TNF-α NO assay (Assay 3). Note: key: a ‘+’ indicates a positive result for desired activity; a ‘−’ indicates a negative result for desired activity. Type of assay: cell-based. The note with it: 10 μg/ml test compound, LPS, 24 hr, Griess reagent. The method, then: Assay 3) Macrophage TNF-α NO assay. J774.1a macrophage cells were treated with 10 μg/ml of test compound dissolved in solvent for 40 minutes prior to the addition of LPS. Culture supernatants were collected after 24 hr. for determination of NO concentration using the Griess reagent.
A general note: Griess reagent forms a coloured azo dye with nitrite.

Assay [4] concerns J774.1 macrophage cells. Nature of the assay: TNFα production in J774.1 macrophages (Example 9). Type of assay: cell-based. The following applies: 2 ng/mL LPS. As to the method: J774.1 macrophage cells were plated at 2×10^5 cells/well in 24 well plates. The next day the media was changed and Compound 100, Compound 103 or cyclodextrin carrier were added to the wells at the indicated concentrations for 30 min prior to stimulation of the cells with 2 ng/mL lipopolysaccharide (LPS). LPS activation of macrophages leads to production of TNF alpha which can be detected in the culture supernatant and quantified by ELISA. The results are depicted in a graph in FIG. 1.

Assay [5] has as its system Bone marrow derived mast cells. Nature of the assay: Calcium influx in mast cells (Example 11). The note with it: anti IgE antibody, Fura-2. Type of assay: cell-based. The source says: The activation of mast cells by IgE receptor crosslinking leads to an influx of calcium into the cells, followed by degranulation and secretion of pro-inflammatory mediator. Bone marrow derived mast cells were loaded with the fluorescent calcium indicator dye Fura-2 prior to treatment for 1 hr with Compound 106 or PBS carrier. Cells were then stimulated or not with an anti IgE antibody to cross-link the IgE receptors. Calcium influx was then monitored by fluorimetry. The results are depicted in a graph in FIG. 3.

Assay [6] relates to Mast cells. Nature of the assay: Stimulation of mast cells by FcεRI crosslinking (Assay 4). Type of assay: cell-based. The following applies: anti-DNP IgE, DNP-HSA. As to the method: Assay 4) Stimulation of mast cells by FcåRI crosslinking. Mast cells were pre-loaded overnight in BMMC medium lacking IL-3 with 0.1 μg/ml anti-DNP IgE (SPE-7, Sigma, Oakville, Ont). For calcium flux measurements, cells were incubated with 2 μM fura 2-acetoxymethyl ester (Molecular Probes, Eugene, Oreg.) in Tyrode's buffer at 23° C. for 45 min. Cells were then washed and incubated in the presence of the test compound 30 min prior to stimulation with the indicated concentration of DNP-human serum albumin (DNP-HSA). Calcium influx was monitored by spectrofluorometry as described previously. For analysis of intracellular signaling, cells were pre-loaded with anti-DNP IgE as above, pre-treated with the test compound for 30 min at 37° C. and stimulated with 20 ng/ml DNP-HSA for 5 min. Total cell lysates were then prepared and analyzed for phospho-PKB, phospho-p38^MAPK, phospho-MAPK, Grb-2 (Cell Signalling, Mississauga, Ont) and SHIP^6 by immunoblot analysis.

The subject of assay [7] is MM cell lines. Nature of the assay: In vitro Multiple Myeloma (MM) assay (Assay 7). Note: key: a ‘+’ indicates a positive result for desired activity; a ‘−’ indicates a negative result for desired activity. Type of assay: cell-based. As to the method:
Assay 7) In vitro Multiple Myeloma (MM) assay. The ability of SHIP activators to reduce tumor cell survival was assessed in MM cell lines treated with the test compound. The lines OPM1, OPM2, MM.1S and RPMI 8226 were plated at a density of 1×10^5 cells/mL in 200 μL of medium with various concentrations of the test compound, and viable cell numbers were determined on day 3 and day 5 by trypan blue exclusion. The lines RPMI 8226 and U266 were plated at a density of 1×10^6 cells/mL in 250 μL of medium with various concentrations of the test compound. At day 4, the medium of each culture was replaced by fresh medium containing the same concentration of test compound. At day 7, the viable cell number of each culture was determined by trypan blue exclusion.
MM cell lines were cultured in 96 well plates seeded with 3×10^4 cells suspended in 200 μL of medium along with various concentrations of test compound (and associated cyclodextran vehicle control), with LY294002 serving as a positive control in the experiments. After 24-48 hrs of culture, […] of [3H]-thymidine (GE Healthcare, Baie D'Urfe, Canada) being added for the final 8 hours. Cells were harvested and DNA associated radioactivity was measured via liquid scintillation counting using a Wallac Microbeta counter (Perkin-Elmer; Boston, Mass.).
The ability of SHIP activators to reduce tumor cell survival was assessed in multiple myeloma (MM) cell lines treated with Compound 100 or AQX-016A. The lines OPM1, OPM2, MM.1S and RPMI 8226 were plated at a density of 1×10^5 cells/mL in 200 μL of medium with various concentrations of Compound 100, and viable cell numbers were determined on day 3 and day 5 by trypan blue exclusion. The lines RPMI 8226 and U266 were plated at a density of 1×10^6 cells/mL in 250 μL of medium with various concentrations of AQX-016A. At day 4, the medium of each culture was replaced by fresh medium containing the same concentration of AQX-016A. At day 7, the viable cell number of each culture was determined by trypan blue exclusion. Experiments were performed in triplicate.
Proliferation (DNA synthesis) assays. Proliferation was measured by measuring incorporation of [^3H]-thymidine into cells. MM cell lines were cultured in 96 well plates seeded with 3×10^4 cells suspended in 200 μL, of medium along with various concentrations of Compound 100 or AQX-016A (and associated cyclodextran vehicle control), with LY294002 serving as a positive control in the indicated experiments. After 24-48 hrs of culture, 1 μCi of [^3H]-thymidine (GE Healthcare, Baie D'Urfe, Canada) being added for the final 8 hours. Plates were frozen, which also aided in cell lysis, to terminate the experiments. Cells were then harvested onto glass fibre filters using an automatic cell harvester (TomTech; Orange, Conn.) and DNA associated radioactivity was measured via liquid scintillation counting using a Wallac Microbeta counter (Perkin-Elmer; Boston, Mass.). Wells were set up in triplicate and data is expressed as mean+/−SEM.

Assay [8] relates to ΔC2 SHIP. The assay can be described thus: SHIP enzyme assay with C2 domain deleted SHIP. It is filed as biochemical. The following applies: PI-3,4-P2 20 μM or Compound 100 3 μM, 30 μM IP4. The source says:
A His6 tagged SHIP ΔC2 domain deletion mutant (deleting residues 725 to 863) in the mammalian expression vector pME18S was generated by a standard PCR-based methodology. An N-terminal His6 C2 domain construct was also generated by PCR inserted into the pET28C bacterial expression vector using EcoRI and NdeI restriction sites.
The allosteric regulation of enzymes has remained under-appreciated primarily because allosteric effectors are not easy to find. The molecular mechanism by which Compound 100 activated SHIP was investigated, first by performing classical enzyme kinetic analysis of its phosphatase activity. Activity measurements were performed with substrate concentrations from 10-100 μM.
The SHIP protein contains a C2 domain located at the carboxyterminal end of its phosphatase domain. […] SHIP lacking its the C2 domain (ΔC2 SHIP) was prepared.

For the compound `Cc1cc(O)c(O)c2c1[C@@]1(C)CCC3C(C)(C)CCC[C@]3(C)[C@H]1C2` (stereo partly drawn) [8 Epi 16A], in assay [1], the “Assay Number 1: SHIP enzyme assay” value is “+”.
Still for that read-out and setting: the value for `COC(=O)c1cc(O)c(O)c2c1[C@@]1(C)CCC3C(C)(C)CCC[C@]3(C)[C@H]1C2` (stereo partly drawn) [Compound 8-Epipelorol, 8-Epipelorol] was “+”; that for `COC(=O)c1cc(O)c(O)c2c1[C@]1(C)CCC3C(C)(C)CCC[C@]3(C)[C@@H]1C2` (stereo partly drawn) [Compound 9-Epipelorol, 9-Epipelorol] was “+”.
Consider `CCc1cc(O)c(O)c2c1[C@]1(C)CCC3C(C)(C)CCC[C@]3(C)[C@H]1C2` (stereo partly drawn) [Compound 18A, reference compound], for which, in assay [2], the “Assay Number 2: Macrophage TNF-α production” value is given as “+”. In assay [1], the “Assay Number 1: SHIP enzyme assay” value was “+”. In addition, the “Assay Number 3: Macrophage NO” value in assay [3] is listed as “+”.
Consider `Cc1cc(OC(=O)CN)cc2c1[C@]1(C)CCC3C(C)(C)CCC[C@]3(C)[C@H]1C2` (stereo partly drawn) [Compound 103], for which the “Assay Number 2: Macrophage TNF-α production” value in assay [2] is listed as “+”. Also, the “inhibition of TNFα production” value in assay [4] was “Inhibits TNF Alpha Production Better than Compound 100”. Besides, the “Assay Number 3: Macrophage NO” value in assay [3] was “+”.
As for `Cc1cc(OC(=O)C(N)CCCCN)cc2c1[C@]1(C)CCC3C(C)(C)CCC[C@]3(C)[C@H]1C2` (stereo partly drawn) [Compound 106], the “Assay Number 2: Macrophage TNF-α production” value in assay [2] is “+”. In addition, the “inhibition of calcium influx” value in assay [5] is recorded as “Inhibits Calcium Influx in Mast Cells”. Further, the “Assay Number 4: Stimulation of mast cells by FcεRI crosslinking” value (shortened to “Assay Number 4: Stimulation”) in assay [6] is reported as “+”. The “Assay Number 3: Macrophage NO” value in assay [3] is “+”.
Regarding `Cc1cc(O)cc2c1[C@]1(C)CCC3C(C)(C)CCC[C@]3(C)[C@@H]1C2` (stereo partly drawn) [Compound 124], the “Assay Number 2: Macrophage TNF-α production” value in assay [2] is given as “+”. The “Assay Number 7: In vitro Multiple Myeloma (MM) assay” value in assay [7] is on record as “+”. Besides, the “Assay Number 4: Stimulation” value in assay [6] is recorded as “+”. For the same compound, the “Assay Number 3: Macrophage NO” value in assay [3] is “+”.
For `Cc1cc(O)cc2c1[C@@]1(C)CCC3C(C)(C)CCC[C@]3(C)[C@H]1C2` (stereo partly drawn) [Compound 125], the “Assay Number 2: Macrophage TNF-α production” value in assay [2] is “+”. For the same compound, in assay [7], the “Assay Number 7: In vitro Multiple Myeloma (MM) assay” value was “+”. Besides, in assay [6], the “Assay Number 4: Stimulation” value is “+”. Also, the “Assay Number 3: Macrophage NO” value in assay [3] is recorded as “+”.
Turning to `CC1(C)CCC[C@@]2(C)C1CC[C@@]1(C)c3c(C(=O)O)cc(O)c(O)c3C[C@@H]12` (stereo partly drawn) [Desmethylpelorol, reference compound], the “Assay Number 2: Macrophage TNF-α production” value in assay [2] is “+”. The “Assay Number 1: SHIP enzyme assay” value in assay [1] is given as “+”. In addition, the “Assay Number 3: Macrophage NO” value in assay [3] was “+”.
In the case of `CCCCCCCCCCCCCCCC(=O)OC[C@H](COP(=O)(O)O[C@H]1[C@H](O)[C@@H](O)[C@H](OP(=O)(O)O)[C@@H](OP(=O)(O)O)[C@H]1O)OC(=O)CCCCCCCCCCCCCCC` [PI-3,4-P2, phosphatidylinositol-3,4-bisphosphate diC16, reference compound], in assay [8], the “ΔC2 SHIP enzyme activity” value was “could not be enhanced”. In addition, in assay [1] (wild-type SHIP), the SHIP enzyme activity result is given as “activated wild-type SHIP enzyme to a similar extent as Compound 100”.
As for `COC(=O)c1cc(O)c(O)c2c1[C@]1(C)CCC3C(C)(C)CCC[C@]3(C)[C@H]1C2` (stereo partly drawn) [Pelorol, pelorol], the “Assay Number 1: SHIP enzyme assay” value in assay [1] is reported as “+”.
